Results published in EP0908457B1, “3-(1,2-benzisothiazol- and isoxazol-5-Y1)-2,4(1H,3H)-pyrimidinedione or thione and 3-(1,2-benzisothiazol- and isoxazol-5-y1)-4(3H)-pyrimidinone or thione herbicidal agents” (BASF AKTIENGESELLSCHAFT, priority 1997, dated 1999).

Experiments:
Sagittaria pygmaea, L. = assay: Preemergence weed control under flooded paddy conditions, SAGPY (Arrowhead (Pygmaea)); format: in vivo; conditions: flooded paddy, rated three to four weeks after treatment; for SAGPY herbicidal rating / SAGPY herbicidal effect rating: preemergence; for herbicidal effect rating, SAGPY: preemergence weeds; on herbicidal effect rating, SAGPY: meaning of each grade not given here
Cyperus iria = assay: Preemergence weed control under flooded paddy conditions, CYPIR (Rice Flatsedge); format: in vivo; conditions: flooded paddy, rated three to four weeks after treatment; for CYPIR herbicidal rating / CYPIR herbicidal effect rating: preemergence; for herbicidal effect rating, CYPIR: preemergence weeds; on herbicidal effect rating, CYPIR: meaning of each grade not given here
[1] = system: Cyperus serotinus, Rottb.; assay: Preemergence weed control under flooded paddy conditions, CYPSE (Flatsedge); format: in vivo; conditions: rated three to four weeks after treatment; for CYPSE herbicidal rating / CYPSE herbicidal effect rating: preemergence; for herbicidal effect rating, CYPSE: preemergence weeds; on herbicidal effect rating, CYPSE: meaning of each grade not given here
[2] = system: Monochoria vaginalis, Presl.; assay: Preemergence weed control under flooded paddy conditions, MOOVA (Monochoria); format: in vivo; conditions: flooded paddy, rated three to four weeks after treatment; for MOOVA herbicidal rating / MOOVA herbicidal effect rating: preemergence; for herbicidal effect rating, MOOVA: preemergence weeds; on herbicidal effect rating, MOOVA: meaning of each grade not given here
[3] = system: Oryza sativa, (L.) Tebonnet; assay: Rice tolerance to post-transplant applications under flooded paddy conditions (Example 187), ORYSAT (Rice, Tebonnet); conditions: rated three to four weeks after treatment
[4] = system: Echinochloa oryzoides (Ard.) Fritsch.; assay: Preemergence weed control under flooded paddy conditions, ECHORC (Watergrass (Calif.)); format: in vivo; conditions: flooded paddy, rated three to four weeks after treatment; for ECHORC herbicidal rating / ECHORC herbicidal effect rating: preemergence; for herbicidal effect rating, ECHORC: preemergence weeds; on herbicidal effect rating, ECHORC: meaning of each grade not given here

## CC(C)N(C(C)C)S(=O)(=O)NC(=O)c1nsc2ccc(-n3c(=O)cc(C(F)(F)F)n(C)c3=O)cc12 [Example 500, 1,2-Benzisothiazole-3-carboxamide, 5-[3,6-dihydro-3-methyl-2,6-dioxo-4-(trifluoromethyl)-1(2H)-pyrimidinyl)-N-(diisopropylsulfamoyl)-]
Sagittaria pygmaea, L.; 0.0320 kg/ha
  SAGPY herbicidal rating: 5.0
Sagittaria pygmaea, L.; 0.0620 kg/ha
  SAGPY herbicidal rating: 7.0
Sagittaria pygmaea, L.; 0.1250 kg/ha
  SAGPY herbicidal rating: 7.0
Sagittaria pygmaea, L.; 0.2500 kg/ha
  SAGPY herbicidal rating: 9.0
Cyperus iria; 0.0320 kg/ha
  CYPIR herbicidal rating: 6.0
Cyperus iria; 0.0620 kg/ha
  CYPIR herbicidal rating: 6.0
Cyperus iria; 0.1250 kg/ha
  CYPIR herbicidal rating: 6.0
Cyperus iria; 0.2500 kg/ha
  CYPIR herbicidal rating: 9.0
[1]; 0.0320 kg/ha
  CYPSE herbicidal rating: 0.0
[1]; 0.0620 kg/ha
  CYPSE herbicidal rating: 0.0
[1]; 0.1250 kg/ha
  CYPSE herbicidal rating: 0.0
[1]; 0.2500 kg/ha
  CYPSE herbicidal rating: 0.0
[2]; 0.0320 kg/ha
  MOOVA herbicidal rating: 7.0
[2]; 0.0620 kg/ha
  MOOVA herbicidal rating: 9.0
[2]; 0.1250 kg/ha
  MOOVA herbicidal rating: 9.0
[2]; 0.2500 kg/ha
  MOOVA herbicidal rating: 9.0
[3]; 0.0320 kg/ha
  ORYSAT herbicidal rating (rice tolerance): 2.0
[3]; 0.0620 kg/ha
  ORYSAT herbicidal rating (rice tolerance): 2.0
[3]; 0.1250 kg/ha
  ORYSAT herbicidal rating (rice tolerance): 2.0
[3]; 0.2500 kg/ha
  ORYSAT herbicidal rating (rice tolerance): 2.0
[4]; 0.0320 kg/ha
  ECHORC herbicidal rating: 4.0
[4]; 0.0620 kg/ha
  ECHORC herbicidal rating: 6.0
[4]; 0.1250 kg/ha
  ECHORC herbicidal rating: 7.0
[4]; 0.2500 kg/ha
  ECHORC herbicidal rating: 9.0

## Cn1c(C(F)(F)F)cc(=O)n(-c2ccc3snc(C(=O)NS(=O)(=O)Cc4ccccc4)c3c2)c1=O [Example 341, 1,2-Benzisothiazole-3-carboxamide, N-(benzylsulfonyl)-5-[3,6-dihydro-3-methyl-2,6-dioxo-4-(trifluoromethyl)-1(2H)-pyrimidinyl]-]
Sagittaria pygmaea, L.; Rate 0.0320 kg/ha
  herbicidal effect rating, SAGPY: 1.0
Sagittaria pygmaea, L.; Rate 0.0620 kg/ha
  herbicidal effect rating, SAGPY: 4.5
Sagittaria pygmaea, L.; Rate 0.1250 kg/ha
  herbicidal effect rating, SAGPY: 4.5
Sagittaria pygmaea, L.; Rate 0.2500 kg/ha
  herbicidal effect rating, SAGPY: 4.5
Cyperus iria; Rate 0.0320 kg/ha
  herbicidal effect rating, CYPIR: 1.0
Cyperus iria; Rate 0.0620 kg/ha
  herbicidal effect rating, CYPIR: 2.0
Cyperus iria; Rate 0.1250 kg/ha
  herbicidal effect rating, CYPIR: 3.5
Cyperus iria; Rate 0.2500 kg/ha
  herbicidal effect rating, CYPIR: 4.0
[1]; Rate 0.0320 kg/ha
  herbicidal effect rating, CYPSE: 0.0
[1]; Rate 0.0620 kg/ha
  herbicidal effect rating, CYPSE: 0.0
[1]; Rate 0.1250 kg/ha
  herbicidal effect rating, CYPSE: 2.5
[1]; Rate 0.2500 kg/ha
  herbicidal effect rating, CYPSE: 3.5
[2]; Rate 0.0320 kg/ha
  herbicidal effect rating, MOOVA: 7.0
[2]; Rate 0.0620 kg/ha
  herbicidal effect rating, MOOVA: 9.0
[2]; Rate 0.1250 kg/ha
  herbicidal effect rating, MOOVA: 9.0
[2]; Rate 0.2500 kg/ha
  herbicidal effect rating, MOOVA: 9.0
[3]; Rate 0.0320 kg/ha
  herbicidal effect rating ORYSAT: 1.5
[3]; Rate 0.0620 kg/ha
  herbicidal effect rating ORYSAT: 2.5
[3]; Rate 0.1250 kg/ha
  herbicidal effect rating ORYSAT: 3.0
[3]; Rate 0.2500 kg/ha
  herbicidal effect rating ORYSAT: 3.5
[4]; Rate 0.0320 kg/ha
  herbicidal effect rating, ECHORC: 3.0
[4]; Rate 0.0620 kg/ha
  herbicidal effect rating, ECHORC: 5.5
[4]; Rate 0.1250 kg/ha
  herbicidal effect rating, ECHORC: 8.0
[4]; Rate 0.2500 kg/ha
  herbicidal effect rating, ECHORC: 8.5

## C#CCn1c(C(F)(F)F)cc(=O)n(-c2ccc3snc(C)c3c2)c1=O [Example 217, 3-(3-Methyl-1,2-benzisothiazol-5-yl)-1-(2-propynyl)-6-(trifluoromethyl)-2,4(1H,3H)-pyrimidinedione]
Sagittaria pygmaea, L.; Rate 0.0313 kg/ha
  SAGPY herbicidal effect rating: 0.0
Sagittaria pygmaea, L.; Rate 0.0625 kg/ha
  SAGPY herbicidal effect rating: 0.0
Sagittaria pygmaea, L.; Rate 0.1250 kg/ha
  SAGPY herbicidal effect rating: 0.0
Sagittaria pygmaea, L.; Rate 0.2500 kg/ha
  SAGPY herbicidal effect rating: 0.0
Cyperus iria; Rate 0.0313 kg/ha
  CYPIR herbicidal effect rating: 0.0
Cyperus iria; Rate 0.0625 kg/ha
  CYPIR herbicidal effect rating: 0.0
Cyperus iria; Rate 0.1250 kg/ha
  CYPIR herbicidal effect rating: 0.0
Cyperus iria; Rate 0.2500 kg/ha
  CYPIR herbicidal effect rating: 0.0
[1]; Rate 0.0313 kg/ha
  CYPSE herbicidal effect rating: 0.0
[1]; Rate 0.0625 kg/ha
  CYPSE herbicidal effect rating: 0.0
[1]; Rate 0.1250 kg/ha
  CYPSE herbicidal effect rating: 0.0
[1]; Rate 0.2500 kg/ha
  CYPSE herbicidal effect rating: 0.0
[2]; Rate 0.0313 kg/ha
  MOOVA herbicidal effect rating: 2.0
[2]; Rate 0.0625 kg/ha
  MOOVA herbicidal effect rating: 4.0
[2]; Rate 0.1250 kg/ha
  MOOVA herbicidal effect rating: 7.0
[2]; Rate 0.2500 kg/ha
  MOOVA herbicidal effect rating: 7.0
[3]; Rate 0.0313 kg/ha
  ORYSAT herbicidal effect rating: 2.0
[3]; Rate 0.0625 kg/ha
  ORYSAT herbicidal effect rating: 2.0
[3]; Rate 0.1250 kg/ha
  ORYSAT herbicidal effect rating: 3.0
[3]; Rate 0.2500 kg/ha
  ORYSAT herbicidal effect rating: 4.0
[4]; Rate 0.0313 kg/ha
  ECHORC herbicidal effect rating: 0.0
[4]; Rate 0.0625 kg/ha
  ECHORC herbicidal effect rating: 0.0
[4]; Rate 0.1250 kg/ha
  ECHORC herbicidal effect rating: 0.0
[4]; Rate 0.2500 kg/ha
  ECHORC herbicidal effect rating: 0.0

## COc1cc(Cl)c(C)cc1-c1nsc2ccc(-n3c(=O)cc(C(F)(F)F)n(C)c3=O)cc12 [Example 506, 2,4(1H,3H)-Pyrimidinedione, 3-[3-(4-chloro-6-methoxy-m-tolyl)-1,2-benzisothiazol-5-yl]-1-methyl-6-(trifluoromethyl)-]
Sagittaria pygmaea, L.; 0.0320 kg/ha
  SAGPY herbicidal rating: 2.5
Sagittaria pygmaea, L.; 0.0620 kg/ha
  SAGPY herbicidal rating: 3.0
Sagittaria pygmaea, L.; 0.1250 kg/ha
  SAGPY herbicidal rating: 3.0
Sagittaria pygmaea, L.; 0.2500 kg/ha
  SAGPY herbicidal rating: 4.5
Cyperus iria; 0.0320 kg/ha
  CYPIR herbicidal rating: 6.5
Cyperus iria; 0.0620 kg/ha
  CYPIR herbicidal rating: 8.0
Cyperus iria; 0.1250 kg/ha
  CYPIR herbicidal rating: 9.0
Cyperus iria; 0.2500 kg/ha
  CYPIR herbicidal rating: 9.0
[1]; 0.0320 kg/ha
  CYPSE herbicidal rating: 4.5
[1]; 0.0620 kg/ha
  CYPSE herbicidal rating: 4.5
[1]; 0.1250 kg/ha
  CYPSE herbicidal rating: 4.5
[1]; 0.2500 kg/ha
  CYPSE herbicidal rating: 7.0
[2]; 0.0320 kg/ha
  MOOVA herbicidal rating: 8.0
[2]; 0.0620 kg/ha
  MOOVA herbicidal rating: 9.0
[2]; 0.1250 kg/ha
  MOOVA herbicidal rating: 9.0
[2]; 0.2500 kg/ha
  MOOVA herbicidal rating: 9.0
[3]; 0.0320 kg/ha
  ORYSAT herbicidal rating (rice tolerance): 1.5
[3]; 0.0620 kg/ha
  ORYSAT herbicidal rating (rice tolerance): 1.5
[3]; 0.1250 kg/ha
  ORYSAT herbicidal rating (rice tolerance): 1.5
[3]; 0.2500 kg/ha
  ORYSAT herbicidal rating (rice tolerance): 2.0
[4]; 0.0320 kg/ha
  ECHORC herbicidal rating: 7.5
[4]; 0.0620 kg/ha
  ECHORC herbicidal rating: 9.0
[4]; 0.1250 kg/ha
  ECHORC herbicidal rating: 9.0
[4]; 0.2500 kg/ha
  ECHORC herbicidal rating: 9.0

## COC(=O)C(C)Oc1ccc(I)cc1-c1nsc2ccc(-n3c(=O)cc(C(F)(F)F)n(C)c3=O)cc12 (stereo not shown) [Example 460, Propionic acid, 2-{2-{5-[3,6-dihydro-3-methyl-2,6-dioxo-4-(trifluoromethyl)-1(2H)-pyrimidinyl]-1,2-benzisothiazol-3-yl}-4-iodophenoxy}-, methyl ester]
Sagittaria pygmaea, L.; 0.0320 kg/ha
  SAGPY herbicidal rating: 0.0
Sagittaria pygmaea, L.; 0.0620 kg/ha
  SAGPY herbicidal rating: 0.0
Sagittaria pygmaea, L.; 0.1250 kg/ha
  SAGPY herbicidal rating: 3.0
Sagittaria pygmaea, L.; 0.2500 kg/ha
  SAGPY herbicidal rating: 3.0
Cyperus iria; 0.0320 kg/ha
  CYPIR herbicidal rating: 0.0
Cyperus iria; 0.0620 kg/ha
  CYPIR herbicidal rating: 2.0
Cyperus iria; 0.1250 kg/ha
  CYPIR herbicidal rating: 3.0
Cyperus iria; 0.2500 kg/ha
  CYPIR herbicidal rating: 3.0
[1]; 0.1250 kg/ha
  CYPSE herbicidal rating: 0.0
[1]; 0.2500 kg/ha
  CYPSE herbicidal rating: 0.0
[2]; 0.0320 kg/ha
  MOOVA herbicidal rating: 3.0
[2]; 0.0620 kg/ha
  MOOVA herbicidal rating: 4.0
[2]; 0.1250 kg/ha
  MOOVA herbicidal rating: 4.0
[2]; 0.2500 kg/ha
  MOOVA herbicidal rating: 4.0
[3]; 0.0320 kg/ha
  ORYSAT herbicidal rating (rice tolerance): 4.0
[3]; 0.0620 kg/ha
  ORYSAT herbicidal rating (rice tolerance): 4.0
[3]; 0.1250 kg/ha
  ORYSAT herbicidal rating (rice tolerance): 4.0
[3]; 0.2500 kg/ha
  ORYSAT herbicidal rating (rice tolerance): 5.0
[4]; 0.0320 kg/ha
  ECHORC herbicidal rating: 6.0
[4]; 0.0620 kg/ha
  ECHORC herbicidal rating: 7.0
[4]; 0.1250 kg/ha
  ECHORC herbicidal rating: 9.0
[4]; 0.2500 kg/ha
  ECHORC herbicidal rating: 9.0
